Results reported in patent US10758534B2 (Vertex Pharmaceuticals Incorporated, priority 2014, dated 2020).

Target: T1, F508del (Homo sapiens, UniProt P13569, DEL508-508)
T1 construct: expressed in transfected cells
Experiment: Protocol 2: FRET membrane potential optical assay (VIPR), identification of correction compounds
Type: cell-based
Settings: Table 3; compounds of Table 1 as modulators of CFTR activity; protocol not stated
Text: Membrane potential optical methods for assaying F508del modulation properties of compounds.
These voltage sensitive assays are based on the change in fluorescence resonant energy transfer (FRET) between the membrane-soluble, voltage-sensitive dye, DiSBAC2(3), and a fluorescent phospholipid, CC2-DMPE, which is attached to the outer leaflet of the plasma membrane and acts as a FRET donor. Changes in membrane potential (Vm) cause the negatively charged DiSBAC2(3) to redistribute across the plasma membrane and the amount of energy transfer from CC2-DMPE changes accordingly. The changes in fluorescence emission were monitored using VIPR™ II, which is an integrated liquid handler and fluorescent detector designed to conduct cell-based screens in 96- or 384-well microtiter plates.
To identify small molecules that correct the trafficking defect associated with F508del; a single-addition HTS assay format was developed. The cells were incubated in serum-free medium for 16 hrs at 37° C. in the presence or absence (negative control) of test compound. As a positive control, cells plated in 384-well plates were incubated for 16 hrs at 27° C. to “temperature-correct” F508del. The cells were subsequently rinsed 3× with Krebs Ringers solution and loaded with the voltage-sensitive dyes. To activate F508del, 10 μM forskolin and the CFTR potentiator, genistein (20 μM), were added along with Cl^−-free medium to each well. The addition of Cl^−-free medium promoted Cl^− efflux in response to F508del activation and the resulting membrane depolarization was optically monitored using the FRET-based voltage-sensor dyes.
• Bath Solution #1: (in mM) NaCl 160, KCl 4.5, CaCl2 2, MgCl2 1, HEPES 10, pH 7.4 with NaOH. • Chloride-free bath solution: Chloride salts in Bath Solution #1 (above) are substituted with gluconate salts. • CC2-DMPE: Prepared as a 10 mM stock solution in DMSO and stored at −20° C. • DiSBAC2(3): Prepared as a 10 mM stock in DMSO and stored at −20° C. Cell Culture
NIH3T3 mouse fibroblasts stably expressing F508del are used for optical measurements of membrane potential. The cells are maintained at 37° C. in 5% CO2 and 90% humidity in Dulbecco's modified Eagle's medium supplemented with 2 mM glutamine, 10% fetal bovine serum, 1×NEAA, β-ME, 1× pen/strep, and 25 mM HEPES in 175 cm^2 culture flasks. For all optical assays, the cells were seeded at 30,000/well in 384-well matrigel-coated plates and cultured for 2 hrs at 37° C. before culturing at 27° C. for 24 hrs for the potentiator assay. For the correction assays, the cells are cultured at 27° C. or 37° C. with and without compounds for 16-24 hours.

T1 sequence (P13569 with tags, fused parts or gaps DEL508-508): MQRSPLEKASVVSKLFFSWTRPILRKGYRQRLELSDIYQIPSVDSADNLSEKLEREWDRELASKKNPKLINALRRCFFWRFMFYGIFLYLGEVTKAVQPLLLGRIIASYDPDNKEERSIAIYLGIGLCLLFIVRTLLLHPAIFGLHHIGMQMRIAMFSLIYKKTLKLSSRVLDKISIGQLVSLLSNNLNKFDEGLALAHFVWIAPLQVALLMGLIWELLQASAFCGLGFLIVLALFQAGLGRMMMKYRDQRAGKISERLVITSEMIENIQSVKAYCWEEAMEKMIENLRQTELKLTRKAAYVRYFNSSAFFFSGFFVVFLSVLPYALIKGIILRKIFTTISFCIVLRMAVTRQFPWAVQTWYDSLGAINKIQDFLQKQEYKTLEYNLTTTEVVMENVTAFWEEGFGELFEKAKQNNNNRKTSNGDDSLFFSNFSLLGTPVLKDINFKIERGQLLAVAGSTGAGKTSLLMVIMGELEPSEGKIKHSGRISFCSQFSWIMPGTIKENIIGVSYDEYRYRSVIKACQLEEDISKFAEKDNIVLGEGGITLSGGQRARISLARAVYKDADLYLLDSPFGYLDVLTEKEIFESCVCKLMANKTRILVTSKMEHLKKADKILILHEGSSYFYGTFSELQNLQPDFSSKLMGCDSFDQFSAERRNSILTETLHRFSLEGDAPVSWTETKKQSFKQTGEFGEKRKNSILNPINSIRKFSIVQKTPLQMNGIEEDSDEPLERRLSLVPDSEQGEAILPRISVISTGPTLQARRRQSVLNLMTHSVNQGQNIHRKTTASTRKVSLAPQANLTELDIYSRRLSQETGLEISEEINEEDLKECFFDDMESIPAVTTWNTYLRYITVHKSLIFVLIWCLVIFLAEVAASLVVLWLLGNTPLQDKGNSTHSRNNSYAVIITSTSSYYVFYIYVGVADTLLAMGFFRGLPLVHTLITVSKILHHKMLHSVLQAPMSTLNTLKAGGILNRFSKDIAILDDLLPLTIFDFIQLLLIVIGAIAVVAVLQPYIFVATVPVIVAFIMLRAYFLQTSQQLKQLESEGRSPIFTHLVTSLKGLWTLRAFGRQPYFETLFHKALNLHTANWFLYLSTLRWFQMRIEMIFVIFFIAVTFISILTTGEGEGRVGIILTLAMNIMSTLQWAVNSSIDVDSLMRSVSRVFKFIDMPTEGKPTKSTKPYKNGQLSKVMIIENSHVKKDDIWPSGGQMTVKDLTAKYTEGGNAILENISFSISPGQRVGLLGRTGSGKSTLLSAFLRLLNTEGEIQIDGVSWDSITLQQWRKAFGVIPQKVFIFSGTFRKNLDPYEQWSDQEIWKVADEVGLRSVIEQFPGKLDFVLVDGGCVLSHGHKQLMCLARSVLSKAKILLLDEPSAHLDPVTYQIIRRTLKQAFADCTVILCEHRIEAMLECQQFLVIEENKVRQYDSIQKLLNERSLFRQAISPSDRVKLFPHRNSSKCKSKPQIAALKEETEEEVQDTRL

Compound | EC30
Cc1cc(C)c(Cn2c(C(=O)NS(=O)(=O)c3cc(N)ccn3)cc3ccccc32)c(C)c1 [Compound 23, N-[(4-amino-2-pyridyl)sulfonyl]-1-[(2,4,6-trimethylphenyl)methyl]indole-2-carboxamide] | ++ (“++” means between 3 uM and 10 uM)
Cc1cc(C)c(Cn2c(C(=O)NS(=O)(=O)c3ccncc3)cc3ccc(Cl)cc32)c(C)c1 [Compound 24, 6-chloro-N-(4-pyridylsulfonyl)-1-[(2,4,6-trimethylphenyl)methyl]indole-2-carboxamide] | ++ (“++” means between 3 uM and 10 uM)
Cc1cc(C)c(Cn2c(C(=O)NS(=O)(=O)c3ccncc3)cc3cc(C)ccc32)c(C)c1 [Compound 25, 5-methyl-N-(4-pyridylsulfonyl)-1-[(2,4,6-trimethylphenyl)methyl]indole-2-carboxamide] | ++ (“++” means between 3 uM and 10 uM)
Cc1cc(C)c(-c2nc(C(C)(C)C)ccc2C(=O)NS(=O)(=O)c2cccc(N)c2)c(C)c1 [Compound 26, N-(3-aminophenyl)sulfonyl-6-tert-butyl-2-(2,4,6-trimethylphenyl)pyridine-3-carboxamide] | ++ (“++” means between 3 uM and 10 uM)
COc1ccc(F)cc1-c1cc(C(=O)NS(=O)(=O)c2ccccc2)n(Cc2c(C)cccc2C)n1 [Compound 27, N-(benzenesulfonyl)-2-[(2,6-dimethylphenyl)methyl]-5-(5-fluoro-2-methoxy-phenyl)pyrazole-3-carboxamide] | +++ (“+++” means <3 uM)
Cc1cccc(C)c1Cn1nc(-c2ccc(Cl)cc2)cc1C(=O)NS(=O)(=O)c1ccccc1 [Compound 28, N-(benzenesulfonyl)-5-(4-chlorophenyl)-2-[(2,6-dimethylphenyl)methyl]pyrazole-3-carboxamide] | +++ (“+++” means <3 uM)
CCOc1ccc(-c2cc(C(=O)NS(=O)(=O)c3ccccc3)n(Cc3c(C)cccc3C)n2)cc1 [Compound 29, N-(benzenesulfonyl)-2-[(2,6-dimethylphenyl)methyl]-5-(4-ethoxyphenyl)pyrazole-3-carboxamide] | +++ (“+++” means <3 uM)
CCc1cccc2c1CN(Cc1c(C)cc(C)cc1C)C2C(=O)NS(=O)(=O)c1cccc(N)c1 (stereo not shown) [Compound 30, N-(3-aminophenyl)sulfonyl-4-ethyl-2-[(2,4,6-trimethylphenyl)methyl]isoindoline-1-carboxamide] | +++ (“+++” means <3 uM)
Cc1cccc(-c2nc(C(C)(C)C)ccc2C(=O)NS(=O)(=O)c2cccc(N)n2)c1 [Compound 31, N-[(6-amino-2-pyridyl)sulfonyl]-6-tert-butyl-2-(m-tolyl)pyridine-3-carboxamide] | ++ (“++” means between 3 uM and 10 uM)
Cc1cc(C)c(CN2Cc3ccccc3C2C(=O)NS(=O)(=O)c2cc(N)ccn2)c(C)c1 (stereo not shown) [Compound 32, N-[(4-amino-2-pyridyl)sulfonyl]-2-[(2,4,6-trimethylphenyl)methyl]isoindoline-1-carboxamide] | ++ (“++” means between 3 uM and 10 uM)
Cc1cc(C)c(Cn2c(C(=O)NS(=O)(=O)c3ccccc3)cc3cc(F)ccc32)c(C)c1 [Compound 33, N-(benzenesulfonyl)-5-fluoro-1-[(2,4,6-trimethylphenyl)methyl]indole-2-carboxamide] | +++ (“+++” means <3 uM)
COc1cccc(S(=O)(=O)NC(=O)c2ccc(C(C)(C)C)nc2Oc2c(C)cc(C)cc2C)n1 [Compound 34, 6-tert-butyl-N-[(6-methoxy-2-pyridyl)sulfonyl]-2-(2,4,6-trimethylphenoxy)pyridine-3-carboxamide] | +++ (“+++” means <3 uM)
CC(C)(C)c1cc(C(=O)NS(=O)(=O)c2ccccc2)n(Cc2cc(C(F)(F)F)ccc2F)n1 [Compound 35, N-(benzenesulfonyl)-5-tert-butyl-2-[[2-fluoro-5-(trifluoromethyl)phenyl]methyl]pyrazole-3-carboxamide] | +++ (“+++” means <3 uM)
COc1cccc2c1cc(C(=O)NS(=O)(=O)c1ccncc1)n2Cc1c(C)cc(C)cc1C [Compound 36, 4-methoxy-N-(4-pyridylsulfonyl)-1-[(2,4,6-trimethylphenyl)methyl]indole-2-carboxamide] | +++ (“+++” means <3 uM)
COc1cc(-c2cc(C(=O)NS(=O)(=O)c3ccccc3)n(Cc3c(C)cccc3C)n2)ccc1Cl [Compound 37, N-(benzenesulfonyl)-5-(4-chloro-3-methoxy-phenyl)-2-[(2,6-dimethylphenyl)methyl]pyrazole-3-carboxamide] | +++ (“+++” means <3 uM)
Cc1cc(C)c(Cn2c(C(=O)NS(=O)(=O)c3ccncc3)cc3ccc(C)cc32)c(C)c1 [Compound 38, 6-methyl-N-(4-pyridylsulfonyl)-1-[(2,4,6-trimethylphenyl)methyl]indole-2-carboxamide] | +++ (“+++” means <3 uM)

The next lines start with the values.

EC30 | Compound
++ (“++” means between 3 uM and 10 uM) | Cc1cc(C)c(Cn2nc(C(C)(C)C)cc2C(=O)NS(=O)(=O)c2cccc(CO)c2)c(C)c1 [Compound 39, 5-tert-butyl-N-[3-(hydroxymethyl)phenyl]sulfonyl-2-[(2,4,6-trimethylphenyl)methyl]pyrazole-3-carboxamide]
+++ (“+++” means <3 uM) | COc1ccccc1-c1cc(C(=O)NS(=O)(=O)c2cccc(N)c2)n(C(C)c2ccccc2)n1 (stereo not shown) [Compound 40, N-(3-aminophenyl)sulfonyl-5-(2-methoxyphenyl)-2-(1-phenylethyl)pyrazole-3-carboxamide]
+++ (“+++” means <3 uM) | Cc1cc(C)c(Oc2nc(C(C)(C)C)ccc2C(=O)NS(=O)(=O)c2cn(C)nc2N)c(C)c1 [Compound 41, N-(3-amino-1-methyl-pyrazol-4-yl)sulfonyl-6-tert-butyl-2-(2,4,6-trimethylphenoxy)pyridine-3-carboxamide]
++ (“++” means between 3 uM and 10 uM) | Cc1cc(C)c(Cn2nc(OCc3ccccc3)cc2C(=O)NS(=O)(=O)c2cccc(N)c2)c(C)c1 [Compound 42, N-(3-aminophenyl)sulfonyl-5-benzyloxy-2-[(2,4,6-trimethylphenyl)methyl]pyrazole-3-carboxamide]
+++ (“+++” means <3 uM) | COc1ccc(-c2cc(C(=O)NS(=O)(=O)c3ccccc3)n(Cc3c(C)cccc3C)n2)cc1F [Compound 43, N-(benzenesulfonyl)-2-[(2,6-dimethylphenyl)methyl]-5-(3-fluoro-4-methoxy-phenyl)pyrazole-3-carboxamide]
++ (“++” means between 3 uM and 10 uM) | COc1cccnc1S(=O)(=O)NC(=O)c1cc(C(C)(C)C)nn1Cc1c(C)cc(C)cc1C [Compound 44, 5-tert-butyl-N-[(3-methoxy-2-pyridyl)sulfonyl]-2-[(2,4,6-trimethylphenyl)methyl]pyrazole-3-carboxamide]
+++ (“+++” means <3 uM) | Cc1cc(C)c(Cn2nc(C(C)(C)C)cc2C(=O)NS(=O)(=O)c2ccccc2)c(C)c1 [Compound 45, N-(benzenesulfonyl)-5-tert-butyl-2-[(2,4,6-trimethylphenyl)methyl]pyrazole-3-carboxamide]
++ (“++” means between 3 uM and 10 uM) | CC(C)(C)c1ccc(C(=O)NS(=O)(=O)c2cccc(N)c2)c(-c2ccc(F)cc2)n1 [Compound 46, N-(3-aminophenyl)sulfonyl-6-tert-butyl-2-(4-fluorophenyl)pyridine-3-carboxamide]
+++ (“+++” means <3 uM) | Cc1cc(C)c(Oc2nc(C(C)(C)C)ccc2C(=O)NS(=O)(=O)c2cccc(O)c2)c(C)c1 [Compound 47, 6-tert-butyl-N-(3-hydroxyphenyl)sulfonyl-2-(2,4,6-trimethylphenoxy)pyridine-3-carboxamide]
++ (“++” means between 3 uM and 10 uM) | Cc1cc(C)c(CN2Cc3ccccc3C2C(=O)NS(=O)(=O)c2ccccn2)c(C)c1 (stereo not shown) [Compound 48, N-(2-pyridylsulfonyl)-2-[(2,4,6-trimethylphenyl)methyl]isoindoline-1-carboxamide]
+++ (“+++” means <3 uM) | COc1ccc(-c2cc(C(=O)NS(=O)(=O)c3ccccc3)n(Cc3c(C)cccc3C)n2)cc1 [Compound 49, N-(benzenesulfonyl)-2-[(2,6-dimethylphenyl)methyl]-5-(4-methoxyphenyl)pyrazole-3-carboxamide]
+++ (“+++” means <3 uM) | CCc1cccc(S(=O)(=O)NC(=O)c2ccc(C(C)(C)C)nc2-c2ccc(C)cc2)c1 [Compound 50, 6-tert-butyl-N-(3-ethylphenyl)sulfonyl-2-(p-tolyl)pyridine-3-carboxamide]
